Assay results taken from patent US5925632A, “Derivatives of 3-pyrrolidylidene-2-one-cephalsporines” (Hoffmann-La Roche Inc., priority 1995, dated 1999).
Converted amounts (≈) assume the structure as drawn. Counter-ions that a name gives are not always drawn.

Tests used:
Assay in all cases: MIC, agar dilution method in Mueller Hinton agar
Format in all cases: cell-based
[1] = tested on: Actinetobacter sp. 51-156; conditions: read-out: MIC (Minimum Inhibiting Concentration)
Protocol: (§1) In vitro activity was determined by minimum inhibitory concentration in a microorganism spectum by the agar dilution method in Mueller Hinton agar.

C. freundii 43 = conditions: Citrobacter freundii, read-out: MIC (Minimum Inhibiting Concentration)
Protocol: as §1

C. freundii 902 = conditions: Citrobacter freundii, read-out: MIC (Minimum Inhibiting Concentration)
Protocol: as §1

E. cloacae 908R = conditions: Enterobacter cloacae, read-out: MIC (Minimum Inhibiting Concentration)
Protocol: as §1

E. cloacae 908SSi = conditions: Enterobacter cloacae, read-out: MIC (Minimum Inhibiting Concentration)
Protocol: as §1

E. coli 25922 = conditions: Escherichia coli, read-out: MIC (Minimum Inhibiting Concentration)
Protocol: as §1

E. faecalis 6 = conditions: Enterococcus faecalis, read-out: MIC (Minimum Inhibiting Concentration)
Protocol: as §1

K. pneumoniae 418 = conditions: Klebsiella pneumoniae, read-out: MIC (Minimum Inhibiting Concentration)
Protocol: as §1

L. monocytogenes BK23 = conditions: Listeria monocytogenes, read-out: MIC (Minimum Inhibiting Concentration)
Protocol: as §1

M. catarrhalis RA21 = conditions: Moraxella catarrhalis, read-out: MIC (Minimum Inhibiting Concentration)
Protocol: as §1

M. morganii 6H-137 = conditions: Morganella morganii, 6H137, read-out: MIC (Minimum Inhibiting Concentration)
Protocol: as §1

P. mirabilis 2117 = conditions: Proteus mirabilis, read-out: MIC (Minimum Inhibiting Concentration)
Protocol: as §1

S. agalactiae QK44 = conditions: Streptococcus agalactiae, read-out: MIC (Minimum Inhibiting Concentration)
Protocol: as §1

S. aureus 6538 = conditions: Staphylococcus aureus, read-out: MIC (Minimum Inhibiting Concentration)
Protocol: as §1

S. aureus 734 MRSA = conditions: Staphylococcus aureus, read-out: MIC (Minimum Inhibiting Concentration)
Protocol: as §1

S. marcescens 69438 = conditions: Serratia marcescens, read-out: MIC (Minimum Inhibiting Concentration)
Protocol: as §1

S. pneumoniae Q19 = conditions: Streptococcus pneumoniae, read-out: MIC (Minimum Inhibiting Concentration)
Protocol: as §1

S. pyogenes B15 = conditions: Streptococcus pyogenes, read-out: MIC (Minimum Inhibiting Concentration)
Protocol: as §1

S. viridans group 016 = conditions: Streptococcus viridans, GROUP016, read-out: MIC (Minimum Inhibiting Concentration)
Protocol: as §1

X. maltophilia 1AC739 = conditions: Stenotrophomonas maltophilia, read-out: MIC (Minimum Inhibiting Concentration)
Protocol: as §1

P. vulgaris 1028 = conditions: Proteus vulgaris, read-out: MIC (Minimum Inhibiting Concentration)
Protocol: as §1

H. influenzae 1 = conditions: Haemophilus influenzae, read-out: MIC (Minimum Inhibiting Concentration)
Protocol: as §1

N. meningitidis 69480 = conditions: Neisseria meningitidis, read-out: MIC (Minimum Inhibiting Concentration)
Protocol: as §1

P. aeruginosa 27853 = conditions: Pseudomonas aeruginosa, read-out: MIC (Minimum Inhibiting Concentration)
Protocol: as §1

SMILES: CC(C)CN1CC/C(=C\C2=C(C(=O)O)N3C(=O)[C@@H](NC(=O)/C(=N\O)c4csc(N)n4)[C@H]3SC2)C1=O.O=C(O)C(F)(F)F [A, (6R,7R)-7-[(Z)-2-(2-amino-thiazol-4-yl)-2-hydroxyiminoacetylamino]-3-[(E)-1-isobutyl-2-oxo-pyrrolidin-3-ylidenemethyl]-8-oxo-5-thia-1-azabicyclo[4.2.0]oct-2-ene-2-carboxylic acid trifluoroacetate]
- MIC [1]: 16 µg/mL
- MIC (C. freundii 43): 4 µg/mL
- MIC (C. freundii 902): 0.25 µg/mL
- MIC (E. cloacae 908R): 16 µg/mL
- MIC (E. cloacae 908SSi): 0.5 µg/mL
- MIC (E. coli 25922): 0.25 µg/mL
- MIC (E. faecalis 6): 1 µg/mL
- MIC (K. pneumoniae 418): 0.5 µg/mL
- MIC (L. monocytogenes BK23): 4 µg/mL
- MIC (M. catarrhalis RA21): 1 µg/mL
- MIC (M. morganii 6H-137): 0.25 µg/mL
- MIC (P. mirabilis 2117): 0.25 µg/mL
- MIC (S. agalactiae QK44): 0.25 µg/mL
- MIC (S. aureus 6538): 1 µg/mL
- MIC (S. aureus 734 MRSA): 4 µg/mL
- MIC (S. marcescens 69438): 1 µg/mL
- MIC (S. pneumoniae Q19): ≤ 0.06 µg/mL
- MIC (S. pyogenes B15): ≤ 0.06 µg/mL
- MIC (S. viridans group 016): ≤ 0.06 µg/mL
- MIC (X. maltophilia 1AC739): > 32 µg/mL

SMILES: CC(C)(C)CN1CC/C(=C\C2=C(C(=O)O)N3C(=O)[C@@H](NC(=O)/C(=N\O)c4csc(N)n4)[C@H]3SC2)C1=O [B, (6R,7R)-7-[(Z)-2-(2-amino-thiazol-4-yl)-2-(hydroxyiminoacetylamino]-3-[(E)-1-(2,2-dimethyl-propyl)-2-oxo-pyrrolidin-3-ylidenemethyl]-8-oxo-5-thia-1-azabicyclo[4.2.0]oct-2-ene-2-carboxylic acid trifluoroacetate]
- MIC [1]: 32 µg/mL
- MIC (C. freundii 43): 8 µg/mL
- MIC (C. freundii 902): 1 µg/mL
- MIC (E. cloacae 908R): 32 µg/mL
- MIC (E. cloacae 908SSi): 2 µg/mL
- MIC (E. coli 25922): 1 µg/mL
- MIC (E. faecalis 6): 2 µg/mL
- MIC (K. pneumoniae 418): 1 µg/mL
- MIC (L. monocytogenes BK23): 4 µg/mL
- MIC (M. catarrhalis RA21): 16 µg/mL
- MIC (M. morganii 6H-137): 0.5 µg/mL
- MIC (P. mirabilis 2117): 0.25 µg/mL
- MIC (P. vulgaris 1028): 4 µg/mL
- MIC (S. agalactiae QK44): 0.5 µg/mL
- MIC (S. aureus 6538): 1 µg/mL
- MIC (S. aureus 734 MRSA): 16 µg/mL
- MIC (S. marcescens 69438): 4 µg/mL
- MIC (S. pneumoniae Q19): ≤ 0.06 µg/mL
- MIC (S. pyogenes B15): ≤ 0.06 µg/mL
- MIC (S. viridans group 016): 1 µg/mL
- MIC (X. maltophilia 1AC739): > 32 µg/mL

SMILES: Nc1nc(/C(=N/O)C(=O)N[C@@H]2C(=O)N3C(C(=O)O)=C(/C=C4\CCN(CC5CCCCC5)C4=O)CS[C@H]23)cs1 [C, (6R,7R)-7-[(Z)-2-(2-amino-thiazol-4-yl)-2-(hydroxyiminoacetylamino]-3-[(E)-1-cyclohexylmethyl-2-oxo-pyrrolidin-3-ylidenemethyl]-8-oxo-5-thia-1-azabicyclo[4.2.0]oct-2-ene-2-carboxylic acid trifluoroacetate]
- MIC [1]: 16 µg/mL
- MIC (C. freundii 43): 8 µg/mL
- MIC (C. freundii 902): 1 µg/mL
- MIC (E. cloacae 908R): 16 µg/mL
- MIC (E. cloacae 908SSi): 2 µg/mL
- MIC (E. coli 25922): 1 µg/mL
- MIC (E. faecalis 6): 2 µg/mL
- MIC (K. pneumoniae 418): 1 µg/mL
- MIC (L. monocytogenes BK23): 4 µg/mL
- MIC (M. catarrhalis RA21): 16 µg/mL
- MIC (M. morganii 6H-137): 4 µg/mL
- MIC (P. mirabilis 2117): 0.5 µg/mL
- MIC (P. vulgaris 1028): 0.5 µg/mL
- MIC (S. agalactiae QK44): 0.25 µg/mL
- MIC (S. aureus 6538): 1 µg/mL
- MIC (S. aureus 734 MRSA): 8 µg/mL
- MIC (S. marcescens 69438): 4 µg/mL
- MIC (S. pneumoniae Q19): ≤ 0.06 µg/mL
- MIC (S. pyogenes B15): ≤ 0.06 µg/mL
- MIC (S. viridans group 016): 0.5 µg/mL
- MIC (X. maltophilia 1AC739): > 32 µg/mL

SMILES: C=CC1=C(C(=O)O)N2C(=O)[C@@H](NC(=O)/C(=N\O)c3csc(N)n3)[C@H]2SC1 [Cefdinir, reference compound]
- MIC [1]: > 32 µg/mL
- MIC (C. freundii 43): > 32 µg/mL
- MIC (C. freundii 902): 16 µg/mL (≈ 40.5 µM)
- MIC (E. cloacae 908R): > 32 µg/mL
- MIC (E. cloacae 908SSi): 32 µg/mL (≈ 80.9 µM)
- MIC (E. coli 25922): 0.25 µg/mL (≈ 0.632 µM)
- MIC (E. faecalis 6): 8 µg/mL (≈ 20.2 µM)
- MIC (H. influenzae 1): 0.5 µg/mL (≈ 1.26 µM)
- MIC (K. pneumoniae 418): 0.12 µg/mL (≈ 0.303 µM)
- MIC (L. monocytogenes BK23): 16 µg/mL (≈ 40.5 µM)
- MIC (M. catarrhalis RA21): 1 µg/mL (≈ 2.53 µM)
- MIC (M. morganii 6H-137): 8 µg/mL (≈ 20.2 µM)
- MIC (N. meningitidis 69480): ≤ 0.06 µg/mL
- MIC (P. aeruginosa 27853): > 32 µg/mL
- MIC (P. mirabilis 2117): 0.12 µg/mL (≈ 0.303 µM)
- MIC (P. vulgaris 1028): 1 µg/mL (≈ 2.53 µM)
- MIC (S. agalactiae QK44): 0.25 µg/mL (≈ 0.632 µM)
- MIC (S. aureus 6538): 0.5 µg/mL (≈ 1.26 µM)
- MIC (S. aureus 734 MRSA): > 32 µg/mL
- MIC (S. marcescens 69438): 16 µg/mL (≈ 40.5 µM)
- MIC (S. pneumoniae Q19): 0.25 µg/mL (≈ 0.632 µM)
- MIC (S. pyogenes B15): ≤ 0.06 µg/mL
- MIC (S. viridans group 016): 2 µg/mL (≈ 5.06 µM)
- MIC (X. maltophilia 1AC739): > 32 µg/mL

SMILES: CO/N=C(\C(=O)N[C@@H]1C(=O)N2C(C(=O)O)=C(CSc3nc(=O)c(=O)[nH]n3C)CS[C@H]12)c1csc(N)n1 [Ceftriaxone, [6R-[6a,7b(Z)]]-7-([[2-Amino-4-thiazolyl)(methoxyimino)acetyl]amino]-8-oxo-3-[[(1,2,5,6-tetrahydro-2-methyl-5,6dioxo-1,2,4-triazin-3-yl)thio]methyl]-5-thia-1-azabicyclo[4.2.0]oct-2-ene-2-carboxylic acid, reference compound]
- MIC [1]: 32 µg/mL (≈ 57.7 µM)
- MIC (C. freundii 43): 32 µg/mL (≈ 57.7 µM)
- MIC (C. freundii 902): 0.25 µg/mL (≈ 0.451 µM)
- MIC (E. cloacae 908R): > 32 µg/mL
- MIC (E. cloacae 908SSi): 0.25 µg/mL (≈ 0.451 µM)
- MIC (E. coli 25922): ≤ 0.06 µg/mL
- MIC (E. faecalis 6): > 32 µg/mL
- MIC (H. influenzae 1): ≤ 0.06 µg/mL
- MIC (K. pneumoniae 418): ≤ 0.06 µg/mL
- MIC (L. monocytogenes BK23): > 16 µg/mL
- MIC (M. catarrhalis RA21): 1 µg/mL (≈ 1.8 µM)
- MIC (M. morganii 6H-137): ≤ 0.06 µg/mL
- MIC (N. meningitidis 69480): ≤ 0.01 µg/mL
- MIC (P. aeruginosa 27853): 16 µg/mL (≈ 28.9 µM)
- MIC (P. mirabilis 2117): ≤ 0.06 µg/mL
- MIC (P. vulgaris 1028): 0.12 µg/mL (≈ 0.216 µM)
- MIC (S. agalactiae QK44): ≤ 0.06 µg/mL
- MIC (S. aureus 6538): 4 µg/mL (≈ 7.21 µM)
- MIC (S. aureus 734 MRSA): > 32 µg/mL
- MIC (S. marcescens 69438): 0.25 µg/mL (≈ 0.451 µM)
- MIC (S. pneumoniae Q19): ≤ 0.06 µg/mL
- MIC (S. pyogenes B15): ≤ 0.06 µg/mL
- MIC (S. viridans group 016): 0.25 µg/mL (≈ 0.451 µM)
- MIC (X. maltophilia 1AC739): > 32 µg/mL
